In general, EC50 refers to the concentration giving half of the maximal effect. Read a high EC50 as weaker potency.

This assay deals with NL-RLuc virus. In words: Inhibition of HIV replication (NL-RLuc virus, luciferase readout in MT-2 cells). It is filed as cell-based. The settings on record: Human immunodeficiency virus 1, MT2, 120 h, MT-2 cells infected with NL-RLuc virus, 5 days of incubation, 10% FBS, at least 2 experiments. The method in brief: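 EC50 derived via median effect equation from at least 2 experiments, using luciferase expression as virus-growth readout. Replication-competent NL-RLuc reporter virus (nef partly replaced by Renilla luciferase) infected MT-2 cells with serial compound dilutions; 5-day incubation in RPMI 1640 plus 10% FBS.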
Regarding `Cc1ncc(-c2ccc(N(C)C)nc2)c(N2CCC(C)(C)CC2)c1[C@H](OC(C)(C)C)C(=O)O` [Example 111, (S)-2-(tert-Butoxy)-2-(6′-(dimethylamino)-4-(4,4-dimethylpiperidin-1-yl)-6-methyl-[3, 3′-bipyridin]-5-yl)acetic acid], a half-maximal response (EC50) required 2 nM.
Next, `CC1(C)CCN(c2c(-c3ccc(OCCc4ccc(F)cc4)c(F)c3)cnc(Cl)c2[C@H](OC(C)(C)C)C(=O)O)CC1` [Example 214, (S)-2-(tert-Butoxy)-2-(2-chloro-4-(4,4-dimethylpiperidin-1-yl)-5-(3-fluoro-4-(4-fluorophenethoxy)phenyl)pyridin-3-yl)acetic acid]: 9 nM; `Cc1nc(NCCCC2CCCCC2)c(-c2ccc(OCCc3ccc(F)cc3)cc2)c(N2CCC(C)(C)CC2)c1[C@H](OC(C)(C)C)C(=O)O` [Example 91, (S)-2-(tert-Butoxy)-2-(6-((3-cyclohexylpropyl)amino)-4-(4,4-dimethylpiperidin-1-yl)-5-(4-(4-fluorophenethoxy)phenyl)-2-methylpyridin-3-yl)acetic acid]: 72 nM.
Next, `CCCOc1ccc(CCOc2ccc(-c3cnc(C)c([C@H](OC(C)(C)C)C(=O)O)c3N3CCC(C)(C)CC3)nc2)cc1` [Example 325, (2S)-2-(tert-butoxy)-2-[4′-(4,4-dimethylpiperidin-1-yl)-6′-methyl-5-[2-(4-propoxyphenyl)ethoxy]-[2,3′-bipyridine]-5′-yl]acetic acid]: 3 nM; `Cc1ncc(-c2ccc(F)cc2)c(N2CCC(C)(C)CC2)c1[C@H](OC(C)(C)C)C(=O)O` [Example 135, (2S)-2-(tert-Butoxy)-2-[4-(4,4-dimethylpiperidin-1-yl)-5-(4-fluorophenyl)-2-methylpyridin-3-yl]acetic acid]: 3 nM.
`Cc1ncc(-c2cc(F)c(OCCc3ccc(F)cc3)cc2F)c(N2CCC(C)(C)CC2)c1[C@H](OC(C)(C)C)C(=O)O` [Example 125, (2S)-2-(tert-Butoxy)-2-(5-{2,5-difluoro-4-[2-(4-fluorophenyl)ethoxy]phenyl}-4-(4,4-dimethylpiperidin-1-yl)-2-methylpyridin-3-yl)acetic acid] yielded an EC50 of 3 nM.
Next, `Cc1ncc(-c2cccc(C(=O)O)c2)c(N2CCC(C)(C)CC2)c1[C@H](OC(C)(C)C)C(=O)O` [Example 147, 3-{5-[(S)-(tert-butoxy) (carboxy)methyl]-4-(4,4-dimethylpiperidin-1-yl)-6-methylpyridin-3-yl}benzoic acid]: 328 nM.
Next, `Cc1ncc(-c2cccc(Cl)c2)c(N2CCC(C)(C)CC2)c1[C@H](OC(C)(C)C)C(=O)O` [Example 143, (2S)-2-(tert-Butoxy)-2-[5-(3-chlorophenyl)-4-(4,4-dimethylpiperidin-1-yl)-2-methylpyridin-3-yl]acetic acid]: 4 nM; `CCCCCOc1ccc(-c2cnc(C)c([C@H](OC(C)(C)C)C(=O)O)c2N2CCC(C)(C)CC2)cn1` [Example 408, (S)-2-(tert-Butoxy)-2-(4-(4,4-dimethylpiperidin-1-yl)-6-methyl-6′-(pentyloxy)-[3, 3′-bipyridin]-5-yl)acetic acid]: 2 nM.
Next, `Cc1ncc(-c2cnc(N(C)C)c(F)c2)c(N2CCC(C)(C)CC2)c1[C@H](OC(C)(C)C)C(=O)O` [Example 114, (S)-2-(tert-Butoxy)-2-(6′-(dimethylamino)-4-(4,4-dimethylpiperidin-1-yl)-5′-fluoro-6-methyl-[3,3′-bipyridin]-5-yl)acetic acid]: 24 nM; `Cc1ncc(-c2ccc(OCCc3ccc(F)cc3)nn2)c(N2CCC(C)(C)CC2)c1[C@H](OC(C)(C)C)C(=O)O` [Example 17, (S)-2-(tert-Butoxy)-2-(4-(4,4-dimethylpiperidin-1-yl)-5-(6-(4-fluorophenethoxy)pyridazin-3-yl)-2-methylpyridin-3-yl)acetic acid]: 85 nM; `Cc1nc(CO)c(-c2ccc(OCCc3ccc(F)cc3)c(F)c2)c(N2CCC(C)(C)CC2)c1[C@H](OC(C)(C)C)C(=O)O` [Example 230, (S)-2-(tert-Butoxy)-2-(4-(4,4-dimethylpiperidin-1-yl)-5-(3-fluoro-4-(4-fluorophenethoxy)phenyl)-6-(hydroxymethyl)-2-methylpyridin-3-yl)acetic acid]: 3 nM.
For `Cc1nc(NCCN(C)C)c(-c2ccc(OCCc3ccc(F)cc3)cc2)c(N2CCC(C)(C)CC2)c1[C@H](OC(C)(C)C)C(=O)O` [Example 28, (S)-2-(tert-Butoxy)-2-(6-((2-(dimethylamino)ethyl)amino)-4-(4,4-dimethylpiperidin-1-yl)-5-(4-(4-fluorophenethoxy)phenyl)-2-methylpyridin-3-yl)acetic acid], it took 0.7 nM to reach a half-maximal effect (EC50).
Next, `Cc1n[nH]cc1-c1nc(C)c([C@H](OC(C)(C)C)C(=O)O)c(N2CCC(C)(C)CC2)c1-c1ccc(OCCc2ccc(F)cc2)cc1` [Example 38, (S)-2-(tert-Butoxy)-2-(4-(4,4-dimethylpiperidin-1-yl)-5-(4-(4-fluorophenethoxy)phenyl)-2-methyl-6-(3-methyl-1H-pyrazol-4-yl)pyridin-3-yl)acetic acid]: 8 nM.
Next, `Cc1ncc(-c2cnc(NCC(C)C)c(F)c2)c(N2CCC(C)(C)CC2)c1[C@H](OC(C)(C)C)C(=O)O` [Example 415, (S)-2-(tert-Butoxy)-2-(4-(4,4-dimethylpiperidin-1-yl)-5′-fluoro-6′-(isobutylamino)-6-methyl-[3, 3′-bipyridin]-5-yl)acetic acid]: 2 nM.
Next, `CC(C)COc1ccc(-c2cnc(CF)c([C@H](OC(C)(C)C)C(=O)O)c2N2CCC(C)(C)CC2)nc1` [Example 278, (S)-2-(tert-Butoxy)-2-(4′-(4,4-dimethylpiperidin-1-yl)-6′-(fluoromethyl)-5-isobutoxy-[2, 3′-bipyridin]-5′-yl)acetic acid]: 4 nM; `Cc1nc(N(C)CCCN(C)C)c(-c2ccc(OCCc3ccc(F)cc3)cc2)c(N2CCC(C)(C)CC2)c1[C@H](OC(C)(C)C)C(=O)O` [Example 98, (S)-2-(tert-Butoxy)-2-(6-((3-(dimethylamino)propyl)(methyl)amino)-4-(4,4-dimethylpiperidin-1-yl)-5-(4-(4-fluorophenethoxy)phenyl)-2-methylpyridin-3-yl)acetic acid]: 2 nM.
`CCOc1ccc(CCOc2ccc(-c3cnc(C)c([C@H](OC(C)(C)C)C(=O)O)c3N3CCC(C)(C)CC3)nc2)cc1` [Example 320, (2S)-2-(tert-butoxy)-2-[4′-(4,4-dimethylpiperidin-1-yl)-5-[2-(4-ethoxyphenyl)ethoxy]-6′-methyl-[2,3′-bipyridine]-5′-yl]acetic acid] showed an EC50 of 2 nM.
Next, `Cc1ccc(F)cc1CCOc1ccc(-c2cnc(C)c([C@H](OC(C)(C)C)C(=O)O)c2N2CCC(C)(C)CC2)nc1` [Example 295, (2S)-2-(tert-butoxy)-2-[4′-(4,4-dimethylpiperidin-1-yl)-5-[2-(5-fluoro-2-methylphenyl)ethoxy]-6′-methyl-[2,3′-bipyridine]-5′-yl]acetic acid]: 2 nM; `Cc1nc(-c2cnn(C)c2C)c(-c2ccc(OCCc3ccc(F)cc3)cc2)c(N2CCC(C)(C)CC2)c1[C@H](OC(C)(C)C)C(=O)O` [Example 49, (S)-2-(tert-Butoxy)-2-(6-(1,5-dimethyl-1H-pyrazol-4-yl)-4-(4,4-dimethylpiperidin-1-yl)-5-(4-(4-fluorophenethoxy)phenyl)-2-methylpyridin-3-yl)acetic acid]: 0.7 nM; `Cc1nc(C(C)O)c(-c2ccc(OCCc3ccc(F)cc3)c(F)c2)c(N2CCC(C)(C)CC2)c1[C@H](OC(C)(C)C)C(=O)O` (single isomer, unassigned) [Example 236]: 2 nM.
Next, `COc1c(F)cc(-c2c(CN3CCCC3)nc(C)c([C@H](OC(C)(C)C)C(=O)O)c2N2CCC(C)(C)CC2)cc1F` [Example 198, (2S)-2-(tert-Butoxy)-2-[5-(3,5-difluoro-4-methoxyphenyl)-4-(4,4-dimethylpiperidin-1-yl)-2-methyl-6-[(pyrrolidin-1-yl)methyl]pyridin-3-yl]acetic acid]: 12 nM.
`CC1(C)CCN(c2c(-c3ccc(CNc4ncnc5c4oc4ccccc45)cc3)cnc(Cl)c2[C@H](OC(C)(C)C)C(=O)O)CC1` [Example 201, (S)-2-(5-(4-((Benzofuro[3,2-d]pyrimidin-4-ylamino)methyl)phenyl)-2-chloro-4-(4,4-dimethylpiperidin-1-yl)pyridin-3-yl)-2-(tert-butoxy)acetic acid] displayed an EC50 of 1 nM.
Next, `Cc1cc(OCC(C)C)ncc1-c1cnc(C)c([C@H](OC(C)(C)C)C(=O)O)c1N1CCC(C)(C)CC1` [Example 429, (2S)-2-tert-Butoxy-2-(4-(4,4-dimethylpiperidin-1-yl)-6′-isobutoxy-4′,6-dimethyl-3, 3′-bipyridin-5-yl)acetic acid]: 219 nM.
Next, `Cc1ncc(-c2ccc(OCc3ccc(F)cc3)cn2)c(N2CCC(C)(C)CC2)c1[C@H](OC(C)(C)C)C(=O)O` [Example 344, (2S)-2-(tert-butoxy)-2-[4′-(4,4-dimethylpiperidin-1-yl)-5-[(4-fluorophenyl)methoxy]-6′-methyl-[2,3′-bipyridine]-5′-yl]acetic acid]: 2 nM.
Next, `Cc1ncc(-c2ccc(OC(C)C)cn2)c(N2CCC(C)(C)CC2)c1[C@H](OC(C)(C)C)C(=O)O` [Example 314, (2S)-2-(tert-butoxy)-2-[4′-(4,4-dimethylpiperidin-1-yl)-6′-methyl-5-(propan-2-yloxy)-[2,3′-bipyridine]-5′-yl]acetic acid]: 5 nM; `Cc1ncc(-c2ccc(C(F)(F)F)c(F)c2F)c(N2CCC(C)(C)CC2)c1[C@H](OC(C)(C)C)C(=O)O` [Example 172, (2S)-2-(tert-Butoxy)-2-{5-[2,3-difluoro-4-(trifluoromethyl)phenyl]-4-(4,4-dimethylpiperidin-1-yl)-2-methylpyridin-3-yl}acetic acid]: 14 nM.

The values are drawn from US20200055839A1 (priority 2017, published 2020).
